Assay results taken from PubChem BioAssay AID1963874 (Molecular Pharmacology Branch, DTP, NCI, 2024).
pIC50: −log10 of the molar value.

Test system: 253994-281-T-J1-PDC KRAS-mutant spheroids with HUVEC/MSC, viability
Assay: Anticancer human tumor 253994-281-T-J1-PDC patient-derived colorectal carcinoma cell line growth inhibition [KRAS2]
Settings: for pIC50: curve of first compound; for viability, T/C: stronger effect = lower value
How it was run: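 Combination screen of spheroid viability in tumor-cell co-cultures with endothelial (HUVEC) and mesenchymal stem cell stroma. Each agent was tested in half-log dilutions, topping at clinical Cmax or at 10 microM without a known Cmax.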

[1] = second compound 0.1 µM, first compound 0.0316 µM
[2] = second compound 0.1 µM, first compound 0.1 µM
[3] = second compound 0.1 µM, first compound 0.316 µM
[4] = second compound 0.1 µM, first compound 1 µM
[5] = second compound 0.316 µM, first compound 0.0316 µM
[6] = second compound 0.316 µM, first compound 0.1 µM
[7] = second compound 0.316 µM, first compound 0.316 µM
[8] = second compound 0.316 µM, first compound 1 µM
[9] = second compound 1 µM, first compound 0.0316 µM
[10] = second compound 1 µM, first compound 0.1 µM
[11] = second compound 1 µM, first compound 0.316 µM
[12] = second compound 1 µM, first compound 1 µM
[13] = second compound 3.16 µM, first compound 0.0316 µM
[14] = second compound 3.16 µM, first compound 0.1 µM
[15] = second compound 3.16 µM, first compound 0.316 µM
[16] = second compound 3.16 µM, first compound 1 µM
[17] = second compound 10 µM, first compound 0.0316 µM
[18] = second compound 10 µM, first compound 0.1 µM
[19] = second compound 10 µM, first compound 0.316 µM
[20] = second compound 10 µM, first compound 1 µM
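Also: spheroids exposed to agents for seven days before readout.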
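For viability, T/C in this document: percent of DMSO vehicle control viability.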

| SMILES | pIC50 (second compound 0.1 µM) | pIC50 (second compound 0.316 µM) | pIC50 (second compound 1 µM) | pIC50 (second compound 3.16 µM) | pIC50 (second compound 10 µM) | viability, T/C [1] | viability, T/C [2] | viability, T/C [3] | viability, T/C [4] | viability, T/C [5] | viability, T/C [6] | viability, T/C [7] | viability, T/C [8] | viability, T/C [9] | viability, T/C [10] | viability, T/C [11] | viability, T/C [12] | viability, T/C [13] | viability, T/C [14] | viability, T/C [15] | further results |
| --- | --- | --- | --- | --- | --- | --- | --- | --- | --- | --- | --- | --- | --- | --- | --- | --- | --- | --- | --- | --- | --- |
| CCN1CCN(Cc2ccc(Nc3ncc(F)c(-c4cc(F)c5nc(C)n(C(C)C)c5c4)n3)nc2)CC1 + COc1cc2nc(C)nc(NC(C)c3cc(N)cc(C(F)(F)F)c3)c2cc1OC1CCOC1 | 6.41 | 6.50 | 6.49 | 6.63 | 6.79 | 83% | 62.9% | 55.3% | 38.9% | 74.3% | 64.4% | 51.3% | 33.7% | 74.7% | 61.8% | 53.3% | 35.5% | 70.8% | 57.6% | 53.3% | viability, T/C (second compound 0.1 µM, first compound 0.00316 µM): 102%; viability, T/C (second compound 0.1 µM, first compound 0.01 µM): 93.3%; viability, T/C (second compound 0.316 µM, first compound 0.00316 µM): 79.6%; viability, T/C (second compound 0.316 µM, first compound 0.01 µM): 86.8%; viability, T/C (second compound 1 µM, first compound 0.00316 µM): 80.4%; viability, T/C (second compound 1 µM, first compound 0.01 µM): 90.5%; viability, T/C (second compound 3.16 µM, first compound 0.00316 µM): 90.2%; viability, T/C (second compound 3.16 µM, first compound 0.01 µM): 73.9%; viability, T/C [16]: 29.4%; viability, T/C (second compound 10 µM, first compound 0.00316 µM): 78%; viability, T/C (second compound 10 µM, first compound 0.01 µM): 86.3%; viability, T/C [17]: 72.7%; viability, T/C [18]: 53.8%; viability, T/C [19]: 40.6%; viability, T/C [20]: 8.08% |
| COC(=O)c1ccc2c(C(=Nc3ccc(N(C)C(=O)CN4CCN(C)CC4)cc3)c3ccccc3)c(O)[nH]c2c1 + CC1OCC2(CCN(c3cnc(Sc4ccnc(N)c4Cl)c(N)n3)CC2)C1N | < 5.00 | 5.46 | 5.84 | 6.81 | > 7.50 | 97.8% | 87.2% | 82.7% | 85.3% | 82.7% | 67% | 68.9% | 85.2% | 53.8% | 50.9% | 62.1% | 51.7% | 56.1% | 52% | 42.9% | viability, T/C (second compound 0.1 µM, first compound 3.16 µM): 81.8%; viability, T/C (second compound 0.1 µM, first compound 10 µM): 70.7%; viability, T/C (second compound 0.316 µM, first compound 3.16 µM): 53.2%; viability, T/C (second compound 0.316 µM, first compound 10 µM): 15%; viability, T/C (second compound 1 µM, first compound 3.16 µM): 43.3%; viability, T/C (second compound 1 µM, first compound 10 µM): 17.8%; viability, T/C [16]: 40.7%; viability, T/C (second compound 3.16 µM, first compound 3.16 µM): 26.8%; viability, T/C (second compound 3.16 µM, first compound 10 µM): 1.64%; viability, T/C [17]: 35%; viability, T/C [18]: 35%; viability, T/C [19]: 31.4%; viability, T/C [20]: 20%; viability, T/C (second compound 10 µM, first compound 3.16 µM): 4.21%; viability, T/C (second compound 10 µM, first compound 10 µM): 0.83% |
